Results reported in publication PMC7792806, “Development of Second Generation Activity-Based Chemical Probes for Sirtuins” (Molecules, 2020).

Assays:
SIRT5 = target: T1, SIRT5 (Homo sapiens, UniProt Q9NXA8); assay: Sirtuin inhibition assay (HPLC), SIRT5; type: biochemical
T1 construct: SIRT5 (34-302); made in house
T1 sequence (Q9NXA8 34-302): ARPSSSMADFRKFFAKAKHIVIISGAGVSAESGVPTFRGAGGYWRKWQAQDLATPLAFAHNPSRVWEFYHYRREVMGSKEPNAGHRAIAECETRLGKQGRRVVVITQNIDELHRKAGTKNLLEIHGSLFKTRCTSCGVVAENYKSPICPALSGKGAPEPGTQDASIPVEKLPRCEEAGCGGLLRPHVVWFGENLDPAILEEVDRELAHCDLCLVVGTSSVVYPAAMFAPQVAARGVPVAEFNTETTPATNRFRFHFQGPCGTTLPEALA
Method: (§1) Plasmids of SIRT1 (full length), SIRT2 (38-356), SIRT3 (102-399), and SIRT5 (34-302) were generous gifts from Dr. Hening Lin (Cornell University, Ithaca, NY, USA). SIRT6 was a gift from Cheryl Arrowsmith (Addgene plasmid #28271). The proteins were expressed and purified according to previously published protocols. The identity of the protein was confirmed by tryptic digestion followed by LC-MS/MS analysis performed at the Vermont Genetic Network (VGN) Proteomics Facility. Protein concentrations were determined by Bradford assay (Thermo Fisher Scientific, Rockford, IL, USA).
(§2) A typical reaction contained 500 μM NAD^+ and 500 μM peptide substrate (H3K9Ac for SIRT2, SIRT3 and SIRT6, p53K382Ac for SIRT1 and SIRT5) of varying concentrations of a small molecule probe in 100 mM phosphate buffer pH 7.5. The reactions were initiated by the addition of 10 μM of sirtuin and were incubated at 37 °C before being quenched by 8 μL of 10% TFA. The incubation time was controlled so that the conversion of substrate was less than 15%. The samples were then injected on an HPLC fitted to a Macherey-Nagel Nucleosil C18 column. NAD^+, NAM and AADPR (acetyl-ADP-ribose) peaks were resolved using a gradient of 0 to 20% methanol in 20 mM ammonium acetate. Chromatograms were analyzed at 260 nm. Reactions were quantified by integrating areas of peaks corresponding to NAD^+ and AADPR. Rates were plotted as a function of small molecule probe concentration, and points were fitted to the following equation:ν(%) = ν0(%) − [ν0(%)(10^x)/(10^x + IC50)](1) where ν(%) represents the turnover rate expressed as percent enzymatic activity remaining, and ν0(%) represents the uninhibited turnover rate expressed as an enzymatic activity of 100%. The variable x represents the log[probe] in nanomolar. IC50 values were derived from this equation.

[1] = system: SIRT1, SIRT2, SIRT3, SIRT5, and SIRT6; assay: Labeling in recombinant sirtuin mixture, isoform selectivity; type: biochemical, human
Method: Figure 4 Labeling of SIRT5 by probe 2B. (A) Dose-dependent labeling of SIRT5 by probe 2B in recombinantly expressed, partially purified sirtuin mixture. SIRT1, SIRT2, SIRT3, SIRT5, and SIRT6 were mixed and incubated with 500 μM NAD^+ and increasing concentrations of 2B. The samples were incubated at 37 °C for 10 min and subjected to UV irradiation for 20 min, and then “click” conjugated to TAMRA-azide; (B) Chemical structure of H3K9Suc; (C) Peptide competition. The labeling of SIRT5 by probe 2B decreased with increasing concentrations of the competitor peptide, H3K9Suc.
Remarkably, probe 2C was also able to label individual sirtuin isoforms in cell lysates. HEK293 cells overexpressing human SIRT2 were lysed, and the lysate was subjected to the labeling by 10 μM probe 2C.
A typical labeling experiment was performed as follows: in a 0.7 mL Eppendorf tube, purified recombinant human sirtuin (10 μM) was incubated with NAD^+ (500 μM) and activity-based probe at 37 °C for 10 min. The sample was transferred to a clear-bottom 96-well plate, placed on ice, and irradiated at 365 nm with a UV-lamp in a cold room. […] Then, destained gel was analyzed with in-gel fluorescence scanning using a Biorad ChemiDoc MP imager (excitation 532 nm, 580 nm cut-off filter and 30 nm band-pass). […]

SIRT2 = target: T2, SIRT2 (Homo sapiens, UniProt Q8IXJ6); assay: Sirtuin inhibition assay (HPLC), SIRT2; type: biochemical
T2 construct: SIRT2 (38-356); made in house
T2 sequence (Q8IXJ6 38-356): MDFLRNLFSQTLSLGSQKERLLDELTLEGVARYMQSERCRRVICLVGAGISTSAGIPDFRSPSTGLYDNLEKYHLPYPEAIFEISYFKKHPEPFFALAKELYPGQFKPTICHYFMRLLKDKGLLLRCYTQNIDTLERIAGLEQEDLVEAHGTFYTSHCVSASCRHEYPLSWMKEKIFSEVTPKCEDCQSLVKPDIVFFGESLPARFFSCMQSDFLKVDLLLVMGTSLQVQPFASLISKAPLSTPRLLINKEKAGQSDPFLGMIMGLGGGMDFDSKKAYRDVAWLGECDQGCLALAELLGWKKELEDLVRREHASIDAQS
Method: as §1, §2

SIRT3 = target: T3, SIRT3 (Homo sapiens, UniProt Q9NTG7); assay: Sirtuin inhibition assay (HPLC), SIRT3; type: biochemical; details: substrate H3K9Ac; 500 μM NAD+, 500 μM peptide, 10 μM sirtuin, pH 7.5, 37 °C
T3 construct: SIRT3 (102-399); made in house
T3 sequence (Q9NTG7 102-399): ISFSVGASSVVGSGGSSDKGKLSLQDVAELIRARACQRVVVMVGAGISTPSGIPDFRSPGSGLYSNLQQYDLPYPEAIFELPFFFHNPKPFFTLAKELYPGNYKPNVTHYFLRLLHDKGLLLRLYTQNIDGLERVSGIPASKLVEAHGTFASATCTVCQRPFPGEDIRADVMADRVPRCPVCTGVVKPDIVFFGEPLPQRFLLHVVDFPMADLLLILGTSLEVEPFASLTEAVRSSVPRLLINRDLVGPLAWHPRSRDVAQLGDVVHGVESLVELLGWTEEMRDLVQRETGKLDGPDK
Method: as §1, §2

Structure (SMILES)	IC50 (SIRT5; substrate p53K382Ac, 500 μM NAD+, 500 μM peptide, 10 μM sirtuin, pH 7.5, 37 °C, NI = Not inhibited) [mM]	isoforms labeled in sirtuin mixture [1]	increase of SIRT2 inhibition compared with 1C (SIRT2; ratio of IC50s) [fold]	selectivity for SIRT2 over SIRT6 (SIRT2; ratio of IC50s) [fold]	IC50 (SIRT3) [mM]	increase of SIRT5 inhibition compared with 1B (SIRT5; ratio of IC50s) [fold]	labeling of other sirtuin isoforms in sirtuin mixture ([1]; partially purified recombinant sirtuin mixture)	IC50 (SIRT2; substrate H3K9Ac, 500 μM NAD+, 500 μM peptide, 10 μM sirtuin, pH 7.5, 37 °C) [mM]
C#CCCCC1(CCC(=O)N[C@@H](CCCCNC(=S)CCCCCCCCCCCCC)C(=O)N[C@@H](C)C(=O)N[C@@H](C)C(=O)OC)N=N1 [Probe 2C]	> 5	highlighting SIRT1, SIRT2, and SIRT6	3	~2	> 2			
C#CCCCC1(CCC(=O)N[C@@H](CCCCNC(=S)CCC(=O)O)C(=O)N[C@@H](C)C(=O)N[C@@H](C)C(=O)OC)N=N1 [Probe 2B]					> 5	~1.7	negligible labeling of the other sirtuin isoforms	> 5
